Measurements taken from patent US8883963B2 (Cadila Healthcare Limited, priority 2007, dated 2014).

What was measured:
[1] = Stability in human plasma; assay type: in vitro ADME; conditions: 2 μM peptidomimetic, pooled human plasma, 37° C.; for half-life at 2 μM: pH 7.8, read-out: half-life (t1/2) when incubated with human plasma
Experimental: (§1) Reactions were terminated by the addition of TFA/H2O (15 mL, 10% (v/v)). […] The column was equilibrated with TFA/H20, at a flow rate of 1 mL/min.

DPP IV = DPP IV (Homo sapiens, UniProt P27487); experiment: Stability against DPP IV enzyme; assay type: in vitro ADME; conditions: 37° C.; for % degradation of peptidomimetics in 24 h when incubated with DPP-IV enzyme: 2 μM peptidomimetic; for half-life at 2 μM: DPP IV enzyme, pH 7.8, 2 μM peptidomimetic, read-out: half-life (t1/2) when incubated with DPP-IV enzyme
Chain of DPP IV (P27487 whole entry, species assumed): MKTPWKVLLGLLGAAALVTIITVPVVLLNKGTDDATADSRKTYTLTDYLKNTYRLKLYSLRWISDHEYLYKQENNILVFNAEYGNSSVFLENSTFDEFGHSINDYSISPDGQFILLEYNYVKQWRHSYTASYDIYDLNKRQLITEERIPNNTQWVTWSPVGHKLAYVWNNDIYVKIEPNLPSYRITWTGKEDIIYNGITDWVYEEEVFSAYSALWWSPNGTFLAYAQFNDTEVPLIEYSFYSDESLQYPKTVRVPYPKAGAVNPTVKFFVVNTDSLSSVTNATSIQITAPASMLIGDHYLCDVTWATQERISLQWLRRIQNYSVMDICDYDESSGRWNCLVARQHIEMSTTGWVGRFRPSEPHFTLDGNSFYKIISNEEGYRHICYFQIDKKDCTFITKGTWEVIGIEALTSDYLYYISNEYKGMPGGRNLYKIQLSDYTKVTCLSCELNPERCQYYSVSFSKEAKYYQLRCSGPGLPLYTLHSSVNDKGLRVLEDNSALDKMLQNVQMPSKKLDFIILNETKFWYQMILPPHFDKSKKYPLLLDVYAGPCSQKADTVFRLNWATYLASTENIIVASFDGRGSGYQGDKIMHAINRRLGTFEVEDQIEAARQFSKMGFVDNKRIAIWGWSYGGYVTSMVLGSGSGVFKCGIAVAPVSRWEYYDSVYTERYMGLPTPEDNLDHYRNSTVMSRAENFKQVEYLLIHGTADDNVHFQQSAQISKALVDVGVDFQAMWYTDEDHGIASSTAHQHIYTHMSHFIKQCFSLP
Experimental: as §1

human glucagon receptor = target: T1, human glucagon receptor (Homo sapiens, UniProt P47871); experiment: In vitro human glucagon antagonist activity (inhibition of cAMP production) in CHO/human glucagon R cells; assay type: cell-based; conditions: with saturated concentration of glucagon peptide
T1 construct: The full-length cDNA was cloned in pcDNA3.1 (Invitrogen); expressed in transfected cells
T1 sequence (P47871 26-477): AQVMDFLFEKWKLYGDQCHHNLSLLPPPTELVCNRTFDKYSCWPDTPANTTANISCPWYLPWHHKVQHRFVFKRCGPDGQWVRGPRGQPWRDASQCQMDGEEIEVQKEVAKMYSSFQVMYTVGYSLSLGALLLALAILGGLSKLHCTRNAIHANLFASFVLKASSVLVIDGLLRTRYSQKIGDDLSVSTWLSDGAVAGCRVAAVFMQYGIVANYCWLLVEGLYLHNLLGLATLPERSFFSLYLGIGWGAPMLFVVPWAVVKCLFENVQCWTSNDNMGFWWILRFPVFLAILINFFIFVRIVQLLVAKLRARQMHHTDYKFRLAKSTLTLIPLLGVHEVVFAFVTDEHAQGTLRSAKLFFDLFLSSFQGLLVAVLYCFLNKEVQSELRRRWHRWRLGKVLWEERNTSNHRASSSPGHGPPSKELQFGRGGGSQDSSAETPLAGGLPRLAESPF

[2] = Stability in simulated intestinal fluid; assay type: in vitro ADME; conditions: 2 μM peptidomimetic, simulated intestinal fluid pH 7.5, 37° C.
Experimental: as §1

[3] = Stability in simulated gastric fluid; assay type: in vitro ADME; conditions: 2 μM peptidomimetic, simulated gastric fluid pH 1.5, 37° C.
Experimental: as §1

Human GLP-1 receptor = target: T2, Human GLP-1 receptor (Homo sapiens, UniProt P43220); experiment: In vitro Human GLP-1 R agonist activity (cyclic AMP determination) in CHO/human GLP1R cells; assay type: cell-based
T2 construct: The full-length cDNA was cloned in pcDNA3.1(+); expressed in transfected cells
T2 sequence (P43220 24-463): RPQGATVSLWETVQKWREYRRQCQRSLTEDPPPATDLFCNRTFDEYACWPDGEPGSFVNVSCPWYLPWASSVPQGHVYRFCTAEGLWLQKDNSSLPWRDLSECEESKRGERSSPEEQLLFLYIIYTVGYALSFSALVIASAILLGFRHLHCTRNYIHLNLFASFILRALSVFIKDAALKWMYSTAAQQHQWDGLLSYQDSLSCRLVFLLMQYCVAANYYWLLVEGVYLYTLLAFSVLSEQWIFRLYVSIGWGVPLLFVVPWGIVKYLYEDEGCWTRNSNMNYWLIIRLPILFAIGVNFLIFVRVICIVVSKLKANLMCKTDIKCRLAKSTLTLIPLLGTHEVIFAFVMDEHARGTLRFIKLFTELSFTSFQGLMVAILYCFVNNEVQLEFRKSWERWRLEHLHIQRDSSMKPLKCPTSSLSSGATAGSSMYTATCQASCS

[4] = Stability in liver microsomes; assay type: in vitro ADME; conditions: 2 μM peptidomimetic, human liver microsomes, 37° C.; for half-life at 2 μM: pH 7.8, read-out: half-life (t1/2) when incubated with liver microsomes
Experimental: as §1

Row | SMILES | % degradation of peptidomimetics in 24 h when incubated with human plasma [1] [%] | half-life at 2 μM [1] [h] | % degradation of peptidomimetics in 24 h when incubated with DPP-IV enzyme (DPP IV) [%] | half-life at 2 μM (DPP IV) [h] | Human Glucagon receptor antagonistic activity shown as inhibition of cAMP production of Glucagon peptide (human glucagon receptor; 1 nM test compound) [pmol/ml/μg prt] | Human Glucagon receptor antagonistic activity shown as inhibition of cAMP production of Glucagon peptide (human glucagon receptor; 10 nM test compound) [pmol/ml/μg prt] | Human Glucagon receptor antagonistic activity shown as inhibition of cAMP production of Glucagon peptide (human glucagon receptor; 100 nM test compound) [pmol/ml/μg prt] | Human Glucagon receptor antagonistic activity shown as inhibition of cAMP production of Glucagon peptide (human glucagon receptor; 1 μM test compound) [pmol/ml/μg prt] | Human Glucagon receptor antagonistic activity shown as inhibition of cAMP production of Glucagon peptide (human glucagon receptor; 10 μM test compound) [pmol/ml/μg prt] | % degradation of peptidomimetics in 24 h when incubated with simulated intestinal fluid [2] [%] | % degradation of peptidomimetics in 24 h when incubated with simulated gastric fluid [3] [%] | Human GLP-1 R activity (cAMP release), % activity with respect to control (Human GLP-1 receptor; 1 nM test compound) [%] | Human GLP-1 R activity (cAMP release), % activity with respect to control (Human GLP-1 receptor; 10 nM test compound) [%] | Human GLP-1 R activity (cAMP release), % activity with respect to control (Human GLP-1 receptor; 100 nM test compound) [%] | Human GLP-1 R activity (cAMP release), % activity with respect to control (Human GLP-1 receptor; 1 μM test compound) [%] | Human GLP-1 R activity (cAMP release), % activity with respect to control (Human GLP-1 receptor; 10 μM test compound) [%] | % degradation of peptidomimetics in 24 h when incubated with liver microsomes [4] [%] | half-life (t1/2) when incubated with simulated intestinal fluid [2] | half-life (t1/2) when incubated with simulated gastric fluid [3] | half-life at 2 μM [4] [h] | other results
1 | CCc1cc(OC)ccc1-c1ccc(CC(NC(=S)[C@H](CC(=O)O)NC(=O)[C@H](CO)NC(=O)[C@@H](NC(=O)C(C)(Cc2ccccc2F)NC(=O)[C@@H](NC(=O)CNC(=O)C(CCC#N)NC(=O)C(C)(C)NC(=O)[C@@H](N)Cc2c[nH]cn2)[C@H](C)O)[C@H](C)O)C(=S)NC(CCCc2ccccc2)C(N)=O)cc1 (single isomer, unassigned) [compound 178] | 00 | > 24 | 00 | > 24 | 0 | 0 | 0 | 0 | 0 | 00 | 00 | 39 ± 0.12 | 80 ± 0.15 | 86 ± 0.18 | 95 ± 0.03 | 98 ± 0.09 | 35 |  |  |  | half-life at 2 μM ([2]; read-out: half-life (t1/2) when incubated with simulated intestinal fluid): > 24 h; half-life at 2 μM ([3]; read-out: half-life (t1/2) when incubated with simulated gastric fluid): > 24 h; half-life (t1/2) when incubated with liver microsomes [4]: (5) h
2 | CCc1cc(OC)ccc1-c1ccc(CC(NC(=O)[C@H](CC(=O)O)NC(=O)[C@H](CO)NC(=O)[C@@H](NC(=O)[C@H](Cc2ccccc2)NC(=O)[C@@H](NC(=O)CNC(=O)[C@H](CCC(N)=O)NC(=O)C2(NC(=O)[C@@H](N)Cc3c[nH]cn3)CC2)[C@@H](C)O)[C@@H](C)O)C(=O)NC(CCCc2ccc(F)cc2C(F)(F)F)C(N)=O)cc1 (single isomer, unassigned) [compound 72] | 70 | 8 | 86 | 9 | 9 ± 0.11 | 6 ± 0.12 | 5 ± 0.14 | 3 ± 0.22 | 0 | 41 | 15 | 45 ± 0.022 | 84 ± 0.46 | 90 ± 0.41 | 99 ± 0.66 | 99 ± 0.03 | 77 | (6) h | (8) h | 1 | 
3 | CCc1cc(OC)ccc1-c1ccc(CC(C(=O)N(C)C(CCCc2ccccc2F)C(N)=O)N(C)C(=O)[C@H](CC(=O)O)N(C)C(=O)[C@H](CO)NC(=O)[C@@H](NC(=O)C(C)(Cc2ccccc2F)NC(=O)[C@@H](NC(=O)CNC(=O)C(CCC#N)NC(=O)C(C)(C)NC(=O)[C@@H](N)Cc2c[nH]cn2)[C@H](C)O)[C@H](C)O)cc1 (single isomer, unassigned) [compound 156] | 71 | 8 | 70 | 9 | 5 ± 0.01 | 2 ± 0.17 | 0 | 0 | 0 | 40 | 14 | 86 ± 0.11 | 99 ± 0.09 | 99 ± 0.06 | 99 ± 0.14 | 99 ± 0.19 | 78 | (6) h | (8) h | 1 | 
4 | CCc1cc(OC)ccc1-c1ccc(CC(C(=O)N(C)C(CCCc2ccccc2F)C(N)=O)N(C)C(=O)[C@H](CC(=O)O)NC(=O)[C@H](CO)NC(=O)[C@@H](NC(=O)C(C)(Cc2ccccc2F)NC(=O)[C@@H](NC(=O)CNC(=O)C(CCC#N)NC(=O)C(C)(C)NC(=O)[C@@H](N)Cc2c[nH]cn2)[C@H](C)O)[C@H](C)O)cc1 (single isomer, unassigned) [compound 144] | 78 | 8 | 76 | 9 | 5 ± 0.09 | 3 ± 0.11 | 0 | 0 | 0 | 43 | 14 | 55 ± 0.16 | 89 ± 0.05 | 93 ± 0.09 | 99 ± 0.02 | 99 ± 0.04 | 80 | (6) h | (8) h | 1 | 
5 | CCc1cc(OC)ccc1-c1ccc(CC(NC(=O)[C@H](CC(=O)O)NC(=O)[C@H](CO)NC(=O)[C@@H](NC(=O)[C@H](Cc2ccccc2)NC(=O)[C@@H](NC(=O)CNC(=O)[C@H](CCC(N)=O)NC(=O)C(C)(C)NC(=O)[C@@H](N)Cc2c[nH]cn2)[C@@H](C)O)[C@@H](C)O)C(=O)NC(CCCc2cccc(Cl)c2)C(N)=O)cc1 (single isomer, unassigned) [compound 19] | 70 | 8 | 86 | 9 | 0 | 0 | 0 | 0 | 0 | 41 | 15 | 99 ± 0.12 | 99 ± 0.08 | 99 ± 0.11 | 99 ± 0.12 | 99 ± 0.16 | 77 | (6) h | (8) h | 1 | 
